Our source for the Inhibition and Ratio values is ChEMBL document CHEMBL1121748, “Antimycotic imidazoles. 5. Synthesis and antimycotic properties of 1-[[2-aryl-4-(arylalkyl)-1,3-dioxolan-2-yl]methyl]-1H-imidazoles” (1981).

Test [1] relates to Cryptococcus neoformans. Put plainly: Antifungal activity against Cryptococcus neoformans. In kind it is functional.
The subject of test [2] is Microsporum canis. Put plainly: Antifungal activity against Microsporum canis. In kind it is functional.
The subject of test [3] is Trichophyton benhamiae. Put plainly: Antifungal activity against Trichophyton mentagrophytes. Format: functional, trychophyton mentagrophytes.
The subject of test [4] is Mucor. Briefly: Antifungal activity against Mucor species. In kind it is functional.
Test [5] relates to Trichophyton rubrum. Briefly: Antifungal activity against Trichophyton rubrum. Format: functional.
Test [6] relates to Streptococcus pyogenes. Briefly: Antibacterial activity against Streptococcus pyogenes. In kind it is functional.
The subject of test [7] is Saprolegnia. Briefly: Antifungal activity against Saprolegnia species. Format: functional.
The test system of test [8] is Sporothrix schenckii. Briefly: Antifungal activity against Sporothrix schenck ii. Format: functional.
In test [9] the test system is Candida albicans. Briefly: Antifungal activity against Candida albicans. Format: functional.
Test [10] has as its system Phialophora verrucosa. Put plainly: Antifungal activity against Phialophora verrucosa. Format: functional.
Test [11] has as its system Candida tropicalis. Briefly: Antifungal activity against Candida tropicalis. Format: functional.
Test [12] deals with Erysipelothrix rhusiopathiae. Put plainly: Antibacterial activity against Erysipelothrix insidiosa. Format: functional.
Test [13] relates to Aspergillus fumigatus. Briefly: Antifungal activity against Aspergillus fumigatus. In kind it is functional.
Test [14] has as its system Staphylococcus haemolyticus. Briefly: Antibacterial against Staphylococcus hemolyticus. Format: functional.
Test [15] is described as follows: Ratio of animals cured to that of animals […], Tested in vivo for antifungal activity against vaginal candidosis in rat; 0/2. Format: functional.
Test [16] is described as follows: Ratio of animals cured to that of animals infected, tested in vivo for antifungal activity against vaginal candidosis in rat; 0/2. Also: test concentration or dose not given here.
Test [17] can be described thus: Ratio of animals cured to that of animals infected, tested in vivo for antifungal activity against cutaneous candidosis in guinea pig; 0/2. Also: test concentration or dose not given here. In kind it is functional.
For Ratio in this document: test concentration or dose not given here.

With `Cc1ccc(CC2COC(Cn3ccnc3)(c3ccc(Cl)cc3Cl)O2)cc1` (stereo not drawn), the Inhibition is less than 1 µg/mL in [1]; less than 1 µg/mL in test [2]; less than 1 µg/mL in test [3]; 10 µg/mL in [4]; less than 1 µg/mL in test [5]; less than 1 µg/mL in test [6]. In addition, the Inhibition is 10 µg/mL in test [7]; 10 µg/mL in test [8]; 10 µg/mL in test [9]; 100 µg/mL in test [10]; more than 100 µg/mL in test [11]; less than 1 µg/mL in [12]. Moreover, the Inhibition is 10 µg/mL in test [13] and less than 1 µg/mL in test [14]. The Ratio in test [15] worked out at 0.
`Clc1ccc(C2(Cn3ccnc3)OCC(Cc3ccc(-c4ccccc4)cc3)O2)c(Cl)c1` (stereo not drawn): the Inhibition in [1] is 100 µg/mL; in [2], 10 µg/mL; in test [3], less than 1 µg/mL; in test [4] it was more than 100 µg/mL; in test [5], less than 1 µg/mL; in test [6] it was 1 µg/mL. The Inhibition in test [7] is 100 µg/mL; in [8] it was 100 µg/mL; in test [9], more than 100 µg/mL; in test [10] it was more than 100 µg/mL; in test [11], more than 100 µg/mL; in test [12], 1 µg/mL. Moreover, the Inhibition in test [13] and in [14] was 10 µg/mL throughout. In test [15], the Ratio was determined as 0.
Regarding `COc1ccc(CC2COC(Cn3ccnc3)(c3ccc(Cl)cc3Cl)O2)cc1` (stereo not drawn), the Inhibition in test [2] is less than 1 µg/mL; in test [3], less than 1 µg/mL; in test [6] it was less than 1 µg/mL; in test [7], 10 µg/mL; in [10], 10 µg/mL; in [14], 100 µg/mL. The Ratio in test [15] is listed as 0.
With `Brc1ccc(C2COC(Cn3ccnc3)(c3ccc(Br)cc3)O2)cc1` (stereo not drawn), the Inhibition in test [1] was less than 1 µg/mL; in [2], less than 1 µg/mL; in test [3], less than 1 µg/mL; in test [4] it was 10 µg/mL; in test [5], less than 1 µg/mL; in test [6] it was less than 1 µg/mL. Further, the Inhibition is 100 µg/mL in [7]; 10 µg/mL in test [8]; more than 100 µg/mL in test [9]; 100 µg/mL in [10]; 100 µg/mL in [11]; less than 1 µg/mL in [12]. The results for the Inhibition in test [13] and in [14] were less than 1 µg/mL and 10 µg/mL, respectively. Moreover, the Ratio in [16] and in [17] was 0 in each case.
For `Brc1ccc(C2(Cn3ccnc3)OCC(c3ccccc3)O2)cc1` (stereo not drawn), the Inhibition in [1] is 10 µg/mL; in test [2], less than 1 µg/mL; in [3], less than 1 µg/mL; in test [4] it was 100 µg/mL; in [5], less than 1 µg/mL; in test [6], less than 1 µg/mL. For the same compound, the Inhibition in [7] was 100 µg/mL; in [8], 100 µg/mL; in test [9], 100 µg/mL; in test [10] it was 100 µg/mL; in test [11], more than 100 µg/mL; in test [12], 10 µg/mL. Also, the Inhibition in test [13] and in test [14] was 100 µg/mL throughout. Further, the Ratio in test [16] and in [17] was 0 throughout.
For `Clc1ccc(C2COC(Cn3ccnc3)(c3ccc(Br)cc3)O2)cc1` (stereo not drawn), the Inhibition in test [1] was 100 µg/mL; in [2], less than 1 µg/mL; in [3] it was less than 1 µg/mL; in [4], more than 100 µg/mL; in [5], less than 1 µg/mL; in test [6] it was 1 µg/mL. Further, the Inhibition is 100 µg/mL in test [7]; 10 µg/mL in test [8]; more than 100 µg/mL in test [9]; 100 µg/mL in test [10]; 100 µg/mL in [11]; 1 µg/mL in test [12]. Besides, the Inhibition was found to be 10 µg/mL in [13] and 100 µg/mL in test [14]. Besides, the Ratio in [16] and in [17] was 0 each time.
Consider `Clc1ccc(C2(Cn3ccnc3)OCC(c3ccccc3)O2)c(Cl)c1` (stereo not drawn), for which the Inhibition in test [1] is 100 µg/mL; in test [2], less than 1 µg/mL; in test [3] it was less than 1 µg/mL; in test [4], 100 µg/mL; in [5], less than 1 µg/mL; in test [6], 10 µg/mL. Further, the Inhibition in test [7] is 100 µg/mL; in test [8], 10 µg/mL; in [9], 100 µg/mL; in test [10], 100 µg/mL; in [11], more than 100 µg/mL; in [12] it was 10 µg/mL. Further, the Inhibition in test [13] is less than 1 µg/mL; in test [14] it was more than 100 µg/mL. Also, in test [15], the Ratio is reported as 0.
For `Cc1ccc(C2(Cn3ccnc3)OCC(c3ccc(Br)cc3)O2)cc1` (stereo not drawn), the Inhibition in [1] is more than 100 µg/mL; in [2], less than 1 µg/mL; in test [3], less than 1 µg/mL; in test [4] it was more than 100 µg/mL; in test [5], less than 1 µg/mL; in [6], less than 1 µg/mL. For the same compound, the Inhibition in test [7] was 10 µg/mL; in test [8] it was more than 100 µg/mL; in [9], more than 100 µg/mL; in test [10], more than 100 µg/mL; in test [11], more than 100 µg/mL; in [12] it was less than 1 µg/mL. The Inhibition in [13] is less than 1 µg/mL; in [14], 10 µg/mL. Besides, the Ratio in [16] and in [17] was 0 each time.
Turning to `Clc1ccc(C2(Cn3ccnc3)OCC(CCc3ccc(-c4ccccc4)cc3)O2)c(Cl)c1` (stereo not drawn), the Inhibition in test [1] is 10 µg/mL; in [2], less than 1 µg/mL; in test [3] it was less than 1 µg/mL; in test [4] it was more than 100 µg/mL; in test [5], less than 1 µg/mL; in [6] it was less than 1 µg/mL. The Inhibition in test [7] was 10 µg/mL; in [8] it was 10 µg/mL; in [9], more than 100 µg/mL; in test [10] it was more than 100 µg/mL; in test [11], more than 100 µg/mL; in test [12], less than 1 µg/mL. Also, the figures for the Inhibition in test [13] and in [14] were 10 µg/mL and 100 µg/mL, respectively. Moreover, the Ratio in [15] was determined as 0.
For `Cc1ccc(C2COC(Cn3ccnc3)(c3ccc(Cl)cc3)O2)cc1` (stereo not drawn), the Inhibition in [1] was less than 1 µg/mL; in test [2], less than 1 µg/mL; in test [3], less than 1 µg/mL; in [4], 100 µg/mL; in test [5], less than 1 µg/mL; in test [6], less than 1 µg/mL. In addition, the Inhibition in test [7] is 100 µg/mL; in [8], 10 µg/mL; in test [9] it was 100 µg/mL; in test [10], 100 µg/mL; in [11], more than 100 µg/mL; in test [12], less than 1 µg/mL. For the same compound, the values for the Inhibition in test [13] and in test [14] were less than 1 µg/mL and 100 µg/mL, respectively. Also, the Ratio in [15] is listed as 0.
Consider `Clc1ccccc1C1COC(Cn2ccnc2)(c2ccc(Br)cc2)O1` (stereo not drawn), for which the Inhibition was less than 1 µg/mL in test [1]; less than 1 µg/mL in [2]; less than 1 µg/mL in test [3]; 10 µg/mL in test [4]; less than 1 µg/mL in test [5]; 10 µg/mL in [6]. The Inhibition was 100 µg/mL in test [7]; 10 µg/mL in test [8]; 100 µg/mL in test [9]; 100 µg/mL in test [10]; more than 100 µg/mL in [11]; less than 1 µg/mL in [12]. For the same compound, the Inhibition in test [13] and in [14] was 100 µg/mL each time. The Ratio in test [16] and in test [17] was 0 throughout.
Consider `Clc1cccc(C2(Cn3ccnc3)OCC(c3ccc(Cl)cc3Cl)O2)c1` (stereo not drawn), for which the Inhibition in test [1] is 100 µg/mL; in test [2] it was 100 µg/mL; in [3], 10 µg/mL; in test [4], 100 µg/mL; in [5] it was less than 1 µg/mL; in test [6] it was less than 1 µg/mL. Moreover, the Inhibition was 100 µg/mL in [7]; 10 µg/mL in test [8]; 100 µg/mL in [9]; more than 100 µg/mL in test [10]; 100 µg/mL in test [11]; 10 µg/mL in [12]. Further, the Inhibition in test [13] and in test [14] was 100 µg/mL in each case. The Ratio in [16] and in [17] was 0 in each case.
